For 26 compounds, inhibition results are on record in patent US10358436B2, “Kinase inhibitors and method of treating cancer” (University Health Network, priority 2010, dated 2019).

Counter-ions that a name gives are not always drawn.

The target of this experiment is Aurora A (Homo sapiens (Human), UniProt O14965). Nature of the experiment: Aurora A inhibition assay (Z-Lyte). It counts as biochemical.
Aurora A, sequence (O14965 whole entry): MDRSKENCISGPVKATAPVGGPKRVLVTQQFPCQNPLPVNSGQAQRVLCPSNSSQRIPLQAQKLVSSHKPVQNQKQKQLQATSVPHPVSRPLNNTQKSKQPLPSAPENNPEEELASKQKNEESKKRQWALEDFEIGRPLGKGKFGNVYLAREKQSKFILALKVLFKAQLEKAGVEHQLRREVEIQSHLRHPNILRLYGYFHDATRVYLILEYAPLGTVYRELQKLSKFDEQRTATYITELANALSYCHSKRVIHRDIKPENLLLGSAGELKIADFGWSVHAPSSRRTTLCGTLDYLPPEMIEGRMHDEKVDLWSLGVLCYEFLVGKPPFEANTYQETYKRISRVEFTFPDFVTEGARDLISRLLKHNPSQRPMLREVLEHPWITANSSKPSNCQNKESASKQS
By inhibition is commonly meant the change of the read-out against control, counted positive when it falls. A lower inhibition goes with a response near the control. The compound `COc1ccc2c(c1)[C@]1(C[C@H]1c1ccc3c(/C=C/c4ccc(CN5CC[C@@H](F)C5)cc4)n[nH]c3c1)C(=O)N2` [Example A112, (1R,2S)-(E)-2-(3-(4-(((R)-3-fluoropyrrolidin-1-yl)methyl)styryl)-1H-indazol-6-yl)-5′-methoxyspiro[cyclopropane-1,3′-indolin]-2′-one 2,2,2-trifluoroacetate] gave an inhibition at 1 µM above 50%.
In turn, `COc1ccc2c(c1)[C@]1(C[C@H]1c1ccc3c(C#Cc4ccc(C=O)cc4)n[nH]c3c1)C(=O)N2` (relative stereo) [Example A137, 4-((6-((1R*,2S*)-5′-methoxy-2′-oxospiro[cyclopropane-1,3′-indoline]-2-yl)-1H-indazol-3-yl)ethynyl)benzaldehyde] had an inhibition at 1 µM below 50%.
Regarding `COc1ccc2c(c1)[C@]1(C[C@H]1c1ccc3c(-c4ccc(CN(C)C)cc4)n[nH]c3c1)C(=O)N2` (relative stereo) [Example A166, (1R*,2S*)-2-(3-(4-((dimethylamino)methyl)phenyl)-1H-indazol-6-yl)-5′-methoxyspiro[cyclopropane-1,3′-indolin]-2′-one 2,2,2-trifluoroacetate], the inhibition at 1 µM was below 50%.
As for `COc1ccc2c(c1)[C@]1(C[C@H]1c1ccc3c(-c4ccc(N5CCC(O)CC5)nc4)n[nH]c3c1)C(=O)N2` (relative stereo) [Example A117, (1R*,2S*)-2-(3-(6-(4-hydroxypiperidin-1-yl)pyridin-3-yl)-1H-indazol-6-yl)-S-methoxyspiro[cyclopropane-1,3′-indolin]-2′-one 2,2,2-trifluoroacetate], the figure is below 50%; as for `COc1ccc2c(c1)[C@]1(C[C@H]1c1ccc3c(I)n[nH]c3c1)C(=O)N2` [Example A7, (1R,2S)-2-(3-iodo-1H-indazol-6-yl)-5′-methoxyspiro[cyclopropane-1,3′-indolin]-2′-one], below 50%.
`O=C1Nc2ccccc2[C@]12C[C@H]2c1ccc2c(/C=C/c3ccc(OCCN4CCOCC4)cc3)n[nH]c2c1` [Example A204, (1R,2S)-(E)-2-(3-(4-(2-morpholinoethoxy)styryl)-1H-indazol-6-yl)spiro[cyclopropane-1,3′-indolin]-2′-one 2,2,2-trifluoroacetate] came in with an inhibition at 1 µM above 50%.
The compound `CCN1CCN(c2ccc(-c3n[nH]c4cc([C@@H]5C[C@@]56C(=O)Nc5ccc(OC)cc56)ccc34)cc2)CC1` [Example A99, (1R,2S)-2-(3-(4-(4-ethylpiperazin-1-yl)phenyl)-1H-indazol-6-yl)-5′-methoxyspiro[cyclopropane-1,3′-indolin]-2′-one 2,2,2-trifluoroacetate] showed an inhibition at 1 µM below 50%.
With `CN1CCN(c2ccc(-c3n[nH]c4cc([C@@H]5C[C@@]56C(=O)Nc5ccc(OC(F)F)cc56)ccc34)cn2)CC1` (relative stereo) [Example A209, 1R*,2S*1-5′-(difluoromethoxy)-2-(3-(6-(4-methylpiperazine-1-yl)pyridine-3-yl)-1H-indazol-6-yl) spiro[cyclopropane-1,3′-indolin]-2′-one 2,2,2-trifluoroacetate], the inhibition at 1 µM is below 50%.
As for `CN1CCN(c2ccc(/C=C/c3n[nH]c4cc([C@@H]5C[C@@]56C(=O)N(C)c5ccccc56)ccc34)cn2)CC1` [Example A110, (1R,2S)-1′-methyl-2-(3-((E)-2-(6-(4-methylpiperazin-1-yl)pyridin-3-yl)vinyl)-1H-indazol-6-yl)spiro[cyclopropane-1,3′-indolin]-2′-one bis(2,2,2-trifluoroacetate)], the inhibition at 1 µM is above 50%.
`COc1ccc2c(c1)[C@]1(C[C@H]1c1ccc3c(-c4ccc(N5CCC(N(C)C)CC5)cc4)n[nH]c3c1)C(=O)N2` (relative stereo) [Example A119, (1R*,2S*)-2-(3-(4-(4-(dimethylamino)piperidin-1-yl)phenyl)-1H-indazol-6-yl)-5′-methoxyspiro[cyclopropane-1,3′-indolin]-2′-one 2,2,2-trifluoroacetate] gave an inhibition at 1 µM below 50%.
As for `COc1ccc2c(c1)[C@]1(C[C@H]1c1ccc3c(-c4ccc(N5CCNCC5)cc4)n[nH]c3c1)C(=O)N2` (relative stereo) [Example A48, (1R*,2S*)-5′-methoxy-2-(3-(4-(piperazin-1-yl)phenyl)-1H-indazol-6-yl)spiro[cyclopropane-1,3′-indolin]-2′-one 2,2,2-trifluoroacetate], the figure is below 50%; as for `CN1C(=O)[C@@]2(C[C@H]2c2ccc3c(/C=C/c4ccc(N5CCNCC5)cc4)n[nH]c3c2)c2ccccc21` [Example A90, (1R,2S)-(E)-1′-methyl-2-(3-(4-(piperazin-1-yl)styryl)-1H-indazol-6-yl)spiro[cyclopropane-1,3′-indolin]-2′-one hydrochloride], above 50%; as for `COc1ccc2c(c1)[C@]1(C[C@H]1c1ccc3c(-c4cccc(N5CCNCC5)c4)n[nH]c3c1)C(=O)N2` (relative stereo) [Example A47, (1R*,2S*)-5′-methoxy-2-(3-(3-(piperazin-1-yl)phenyl)-1H-indazol-6-yl)spiro[cyclopropane-1,3′-indolin]-2′-one 2,2,2-trifluoroacetate], below 50%.
As for `COc1ccc2c(c1)[C@]1(C[C@H]1c1ccc3c(-c4ccc(N5CCOCC5)nc4)n[nH]c3c1)C(=O)N2` (relative stereo) [Example A20, (1R*,2S*)*-5′-Methoxy-2-(3-(6-morpholinopyridin-3-yl)-1H-indazol-6-yl)spiro[cyclopropane-1,3′-indolin]-2′-one], the figure is below 50%; as for `COc1ccc2c(c1)[C@]1(C[C@H]1c1ccc3c(/C=C/c4ccc(N5CCN(C)CC5)cc4)n[nH]c3c1)C(=O)N2` (relative stereo) [Example A174, (1R*,2S*)-(E)-5′-methoxy-2-(3-(4-(4-methylpiperazin-1-yl)styryl)-1H-indazol-6-yl)spiro[cyclopropane-1,3′-indolin]-2′-one 2,2,2-trifluoroacetate], above 50%; as for `COc1ccc2c(c1)[C@]1(C[C@H]1c1ccc3c(-c4ccc(C5CCNCC5)cc4)n[nH]c3c1)C(=O)N2` (relative stereo) [Example A122, (1R*,2S*)-5′-methoxy-2-(3-(4-(piperidin-4-yl)phenyl)-1H-indazol-6-yl)spiro[cyclopropane-1,3′-indolin]-2′-one 2,2,2-trifluoroacetate], below 50%.
The value for `NS(=O)(=O)c1cccc(-c2n[nH]c3cc([C@@H]4C[C@@]45C(=O)Nc4ccccc45)ccc23)c1` (relative stereo) [Example A130, 3-(6-((1R*,2S*)-2′-oxospiro[cyclopropane-1,3′-indoline]-2-yl)-1H-indazol-3-yl)benzenesulfonamide] was below 50%.
The compound `O=C1Nc2ccccc2[C@]12C[C@H]2c1ccc2c(/C=C/c3ccccn3)n[nH]c2c1` (relative stereo) [Example A53, (1R*,2S*)-2-(3-((E)-2-(pyridin-2-yl)vinyl)-1H-indazol-6-yl)spiro[cyclopropane-1,3′-indolin]-2′-one] registered an inhibition at 1 µM above 50%.
With `CCN1Cc2ccc(/C=C/c3n[nH]c4cc([C@@H]5C[C@@]56C(=O)Nc5ccc(OC)cc56)ccc34)cc2C1` (relative stereo) [Example A190, (1R*,2S*)-2-(3-((E)-2-(2-ethylisoindolin-5-yl)vinyl)-1H-indazol-6-yl)-5′-methoxyspiro[cyclopropane-1,3′-indolin]-2′-one 2,2,2-trifluoroacetate], the inhibition at 1 µM was above 50%.
As to `COc1ccc2c(c1)[C@]1(C[C@H]1c1ccc3c(-c4ccc(N5CCN(C6CCCC6)CC5)cc4)n[nH]c3c1)C(=O)N2` [Example A192, (1R,2S)-2-(3-(4-(4-cyclopentylpiperazin-1-yl)phenyl)-1H-indazol-6-yl)-5′-methoxyspiro[cyclopropane-1,3′-indolin]-2′-one 2,2,2-trifluoroacetate], the inhibition at 1 µM was below 50%.
The value for `NC(=O)CN1C(=O)[C@@]2(C[C@H]2c2ccc3c(/C=C/c4ccc(CN5CCCCC5)cc4)n[nH]c3c2)c2ccccc21` (relative stereo) [Example A165, 2-((1R*,2S*)-(E)-2′-oxo-2-(3-(4-(piperidin-1-ylmethyl)styryl)-1H-indazol-6-yl)spiro[cyclopropane-1,3′-indoline]-1′-yl)acetamide 2,2,2-trifluoroacetate] was above 50%.
With `C[C@@H]1CCC[C@H](C)N1Cc1ccc(/C=C/c2n[nH]c3cc([C@@H]4C[C@@]45C(=O)Nc4ccccc45)ccc23)cc1` [Example A201, (1R,2S)-(E)-2-(3-(4-((cis-2,6-dimethylpiperidin-1-yl)methyl)styryl)-1H-indazol-6-yl)spiro[cyclopropane-1,3′-indolin]-2′-one 2,2,2-trifluoroacetate], the inhibition at 1 µM was above 50%.
The value for `COc1ccc2c(c1)[C@]1(C[C@H]1c1ccc3c(/C=C/c4cc(F)c(CN5CCOCC5)c(F)c4)n[nH]c3c1)C(=O)N2` [Example A218, (1R,2S)-(E)-2-(3-(3,5-difluoro-4-(morpholinomethyl)styryl)-1H-indazol-6-yl)-5′-methoxyspiro[cyclopropane-1,3′-indolin]-2′-one 2,2,2-trifluoroacetate] was above 50%; that for `COc1ccc2c(c1)[C@]1(C[C@H]1c1ccc3c(-c4ccc(CN5CCOCC5)cc4)n[nH]c3c1)C(=O)N2` (relative stereo) [Example A139, (1R*,2S*)-5′-methoxy-2-(3-(4-(morpholinomethyl)phenyl)-1H-indazol-6-yl)spiro[cyclopropane-1,3′-indolin]-2′-one 2,2,2-trifluoroacetate] was below 50%; that for `COc1ccc2c(c1)[C@]1(C[C@H]1c1ccc3c(/C=C/c4ccc(CC5CCN(C)CC5)cc4)n[nH]c3c1)C(=O)N2` [Example A82, (1R,2S)-(E)-5′-methoxy-2-(3-(4-((l-methylpiperidin-4-yl)methyl)styryl)-1H-indazol-6-yl)spiro[cyclopropane-1,3′-indolin]-2′-one 2,2,2-trifluoroacetate salt] was above 50%.
The value for `COc1ccc2c(c1)[C@]1(C[C@H]1c1ccc3c(-c4ccc(N5CC[C@@H](N(C)C)C5)cc4)n[nH]c3c1)C(=O)N2` [Example A127, (1R,2S)-2-(3-(4-((R)-3-(dimethylamino)pyrrolidin-1-yl)phenyl)-1H-indazol-6-yl)-5′-methoxyspiro[cyclopropane-1,3′-indolin]-2′-one 2,2,2-trifluoroacetate] was above 50%.
